Values quoted from earlier work, collected in patent US20050114109A1, “STRUCTURE OF INTEGRIN ALPHA V-beta 3 EXTRACELLULAR DOMAIN COMPLEXED WITH LIGAND” (priority 2002, published 2005).

Tested on: native or extracellular αVβ3
Settings: physiologic ligands, from Mehta et al. 1998 and Dechantsreiter et al. 1999, read-out: IC50, competes with binding of physiologic ligands to αVβ3

native or extracellular αVβ3, sequence (P06756 31-889 limits assumed): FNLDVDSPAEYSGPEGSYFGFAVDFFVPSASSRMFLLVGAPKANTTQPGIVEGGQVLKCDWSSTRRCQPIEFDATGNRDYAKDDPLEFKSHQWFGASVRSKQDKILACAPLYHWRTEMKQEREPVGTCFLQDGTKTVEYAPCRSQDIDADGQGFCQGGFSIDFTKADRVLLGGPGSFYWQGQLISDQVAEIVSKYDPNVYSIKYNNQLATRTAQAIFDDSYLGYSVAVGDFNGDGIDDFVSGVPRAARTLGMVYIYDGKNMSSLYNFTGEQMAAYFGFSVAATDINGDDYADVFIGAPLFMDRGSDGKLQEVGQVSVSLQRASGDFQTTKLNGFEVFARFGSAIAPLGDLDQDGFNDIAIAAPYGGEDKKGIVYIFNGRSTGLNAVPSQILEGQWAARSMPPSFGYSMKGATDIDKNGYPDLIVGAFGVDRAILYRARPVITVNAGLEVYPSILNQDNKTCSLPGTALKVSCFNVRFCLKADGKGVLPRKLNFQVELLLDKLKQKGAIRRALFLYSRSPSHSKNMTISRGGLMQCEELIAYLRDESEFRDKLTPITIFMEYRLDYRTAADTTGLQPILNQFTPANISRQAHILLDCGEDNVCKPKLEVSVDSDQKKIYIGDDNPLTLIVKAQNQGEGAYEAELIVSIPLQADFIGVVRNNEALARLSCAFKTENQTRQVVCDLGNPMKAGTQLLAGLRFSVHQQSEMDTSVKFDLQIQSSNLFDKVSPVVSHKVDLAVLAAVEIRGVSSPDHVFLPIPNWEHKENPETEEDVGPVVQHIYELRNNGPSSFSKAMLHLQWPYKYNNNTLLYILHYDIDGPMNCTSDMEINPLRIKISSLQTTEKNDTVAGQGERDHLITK
native or extracellular αVβ3, sequence (P06756 891-987 limits assumed): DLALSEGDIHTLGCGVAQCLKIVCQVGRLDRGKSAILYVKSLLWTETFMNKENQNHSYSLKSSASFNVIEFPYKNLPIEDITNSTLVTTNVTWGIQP
native or extracellular αVβ3, sequence (P05106 27-625 limits assumed, further chain): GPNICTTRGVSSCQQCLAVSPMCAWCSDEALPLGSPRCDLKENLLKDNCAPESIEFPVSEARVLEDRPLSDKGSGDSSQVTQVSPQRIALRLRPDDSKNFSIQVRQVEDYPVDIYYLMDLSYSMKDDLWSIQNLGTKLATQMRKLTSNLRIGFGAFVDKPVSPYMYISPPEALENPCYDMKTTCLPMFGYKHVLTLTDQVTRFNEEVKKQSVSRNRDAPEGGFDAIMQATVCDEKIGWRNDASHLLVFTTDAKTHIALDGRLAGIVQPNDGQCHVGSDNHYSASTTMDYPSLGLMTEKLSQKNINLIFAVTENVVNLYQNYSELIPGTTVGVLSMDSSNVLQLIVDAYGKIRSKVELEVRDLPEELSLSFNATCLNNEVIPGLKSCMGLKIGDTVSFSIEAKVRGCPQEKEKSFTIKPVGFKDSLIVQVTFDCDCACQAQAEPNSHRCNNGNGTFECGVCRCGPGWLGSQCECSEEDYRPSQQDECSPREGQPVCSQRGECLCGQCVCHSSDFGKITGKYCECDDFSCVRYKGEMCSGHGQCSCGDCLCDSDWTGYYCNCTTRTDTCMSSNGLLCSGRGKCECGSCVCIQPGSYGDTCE

IC50: 0.5 to 3 nM
Substance: Arg-Gly-Asp-(D-Phe)-(N-methyl-Val) [Cyclo(RGDf-N-Me-V), cyclic pentapeptide ligand of αVβ3, in clinical trials as an anti-angiogenic therapeutic]
